Laboratory results reported in US11407741B2, “Compounds and their use as selective inhibitors of caspase-2” (priority 2017, dated 2022).
Where a SMILES comes first, the peptide text is derived from it. [ ]: non-standard residue; d: D form. The star is where a group is joined. Pro(3S-CH2tBu) = CC(C)(C)C[C@H]1CCN[C@@H]1C(=O)O; X4 = CN(Cc1ccccc1)C(=O)/C=C/C(=O)N(CC(=O)O)N*; X3 = O=C(O)CN(N*)C(=O)COc1c(F)cccc1F; Quinaldoyl = O=C(c1ccc2ccccc2n1)*; X1 = c1ncc(CO*)s1

Assays:
Caspase-2 = target: T1, Caspase-2 (Homo sapiens, UniProt P42575); test: Caspase-2 inhibition assay for irreversible inhibitors (kinact/KI, continuous method); format: biochemical; conditions: for Selectivity for Caspase 2: comparison of kinact/KI ratios regarding caspase 2 and 3
T1 construct: the Caspase-2 and Caspase-3 are human recombinant active enzymes; purchased Enzo Life ALX-201-057-U100
T1 sequence (P42575 170-325 limits assumed): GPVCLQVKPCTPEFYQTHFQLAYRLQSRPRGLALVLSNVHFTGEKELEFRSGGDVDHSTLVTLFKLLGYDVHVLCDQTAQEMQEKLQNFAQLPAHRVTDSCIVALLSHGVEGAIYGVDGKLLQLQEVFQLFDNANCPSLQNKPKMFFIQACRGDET
T1 sequence (P42575 348-452 limits assumed): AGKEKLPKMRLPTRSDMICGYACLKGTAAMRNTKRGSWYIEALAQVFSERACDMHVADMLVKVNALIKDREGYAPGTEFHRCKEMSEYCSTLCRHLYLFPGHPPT
Procedure: The efficiency of the comparative compound Δ2Me-TRP601, that is an already known group II Caspase inhibitor (inhibitor of Caspase-2, Caspase-3 and Caspase-7), has been assessed by a similar protocol described in Chauvier et al., 2011 Cell Death Dis 2011, 2:e203.
In this example, the Caspase-2 and Caspase-3 are human recombinant active enzymes that are respectively provided by Enzo Life® (ALX-201-057-U100) and R&D Systems® (707-C3-010/CF).
Caspase-2 is used at a final concentration of 0.1 nM in a “Caspase-2 buffer” containing 20 mM HEPES (pH 7.4), 5 mM DTT, 2 mM EDTA, 0.1% CHAPS and 800 mM succinate. Caspase-3 is used at a final concentration of 0.5 nM in a “Caspase-3 buffer” containing 20 mM HEPES (pH 7.4), 0.1% CHAPS, 5 mM DTT, and 2 mM EDTA.
The peptide substrates used for the enzymatic activity measurements are Ac-DEVD-AMC and Ac-VDVAD-AMC commercialized by EnzoLife® (respectively referenced ALX-260-031-M005 and ALX-260-060-M005). They are fluorogenic due to the presence of their AMC (7-amino-4-methylcoumarin) end group. The releasing of AMC enables to follow the enzymatic activity in fluorescence unit RFU over time in a 96-wells microplate.
The fluorescence values are measured at 37° C. with a spectrofluorometer with a microplate reader BMG FLUOstar OPTIMA. This apparatus is driven by the software Biolise® and is equipped with thermoelectric cooling device by Peltier effect. The mathematical analyses of the experimental data are done with the software Kaleidagraph®.
The inhibitory properties of the tested compounds are evaluated by the determination of the kinact/KI ratio regarding either Caspase-2 or Caspase-3 wherein: • kinact is the maximal inactivation rate constant, and • KI is the dissociation constant according to:
Said ratio is measured according to the continuous method (Allison R D. Curr Protoc Protein Sci. 2001 May; Chapter 3:Unit 3.5.; Chauvier et al., 2011 Cell Death Dis 2:e203; Tan et al., J Med Chem 2015, […]).
Briefly, Caspases activities were determined by monitoring the hydrolysis of fluorogenic substrates (λexc=355 nm, λem=460 nm) as a function of time, in the presence of untreated Caspases (control) or Caspases that had been incubated with a test compound, for 30 min minimum at 37° C. using a BMG Fluostar microplate reader (black 96-well microplates) and the initial velocity (V0) was determined from the linear portion of the progress curve.
Substrates and compounds were previously dissolved in DMSO at 10 mM, with the final solvent concentration kept at lower 4% (v/v). V0, relative velocities, KM and IC50 were determined from experimental data using Mars data Analysis 2.0 and Kaleidagraph softwares.
Inhibitor binding affinity (dissociation constant, KI) and first-order rate constant (k3) parameters were determined for Caspase-2 and Caspase-3 using the progress curve method. The ratio k3/KI was obtained by fitting the experimental data to the equations (F.U., fluorescence unit): […]
A continuous method of determination of the kinact/KI ratio was used for evaluating the inhibitory activity of the tested compounds against Caspase-2 and Caspase-3.
The reaction mixture is prepared by letting the enzyme and the buffer incubate at 37° C.
The tested inhibitory compounds are prepared at different concentrations (¼ IC50; ½ IC50; IC50; 2 IC50; 4 IC50) and put in the microplate.
Then the reaction mixture comprising the enzyme, the buffer and the substrate is rapidly added in the wells.
The activities of the enzyme are measured between 45 and 60 minutes.
The RFU (Relative Fluorescence Units)=f(times) curves are traced for each concentration of tested molecule according to the following equation: ((((−V0)*(exp(−kobs*m0)))+V0)/kobs*)+RFU0
in which: • V0 corresponds to the initial rate (RFU·s^−1) in the concentration of 0 of the tested inhibitory compound; • kobs is the inactivation rate constant; • RFU0 is the fluorescence value at t=0 min; and • m0 is the variable i.e. the inhibitor concentration.

HeLa cells = test: Protection against vincristine-induced cell death, propidium iodide flow cytometry; format: cell-based, human; parameters: Index of cell death: key to the marks not given beside the values
Procedure: Human HeLa cells are used in this model. HeLa cells (cervical cancer cell line) were obtained from American Type Cell Collection (ATCC), and were cultured in Dulbecco's Modified Eagle Medium (DMEM, High Glucose, GlutaMAX™, Pyruvate) (Gibco, Life technologies), supplemented with 10% FCS and antibiotics (Gibco, Life technologies).
Human HeLa cells are treated with a solution of Vincristine (Sigma Aldrich) (diluted in water at 5 mM). Vincristine works partly by binding to the Tubulin protein, stopping the cell from separating its chromosomes during the metaphase; the cell then undergoes apoptosis through a caspase-dependent process.
Propidium iodide (PI) (Sigma Aldrich) is used to evaluate plasma membrane permeabilisation, a sign of cell death.
24 hours before pharmacological treatment, HeLa cells were plated into 24-well plates. […] Cells were exposed or not (control), to 20 nM Vincristine for 48 hours.
The content of each well is collected is added to PBS and then centrifuged (900 rpm; 5 min).
The pellet obtained is put into 300 μL of a medium comprising propidium iodide and incubated (37° C., 5% CO2) in the dark for 5 minutes and then subjected to flow cytometry analysis.
Fluorescence-Activated Cell Sorting was performed using a FACSCalibur cytometer (Becton Dickinson, San Jose, Calif.). For each sample, data from 5,000 Cells were registered and analyzed with the CellQuest Pro software (Becton Dickinson). Analysis included FSC (Forward Scatter/relating to the cells'size) and SSC (Side Scatter/relating to the cells' granularity) parameters together with FL-1 and FL-3 channel.
The percentage of propidium iodide positive cells gives an estimation of cell death.

SMILES | type of inhibition (irreversible) (Caspase-2) | Selectivity for Caspase 2 (Caspase-2) | also measured
CC(C)[C@H](NC(=O)c1ccc2ccccc2n1)C(=O)N[C@@H](CC(=O)O)C(=O)N[C@H](C(=O)N1CC[C@H](CC(C)(C)C)[C@H]1C(=O)N[C@@H](CC(=O)O)C(=O)COc1c(F)cccc1F)C(C)C (single isomer, unassigned) [Compound 2 enantiomer a] | – | – | k3/KI Casp2 (Caspase-2; human recombinant Caspase-2 0.1 nM, 37° C.): 1 894 076 M^−1 · s^−1; Selectivity ratio (C2/C3) (Caspase-2; ratio of k3/KI Casp2 to Casp3): 721
CC(C)[C@H](NC(=O)c1ccc2ccccc2n1)C(=O)N[C@@H](CC(=O)O)C(=O)N[C@H](C(=O)N1CC[C@H](CC(C)(C)C)[C@H]1C(=O)N[C@@H](CC(=O)O)C(=O)OCc1cncs1)C(C)C [Compound 3, (S)-4-(((S)-1-((2S,3S)-2-(((S)-3-carboxy-1-oxo-1-(thiazol-5 - ylmethoxy)propan-2-yl)carbamoyl)-3-neopenthylpyrrolidin-1-yl)-3-methyl-1-oxobutan-2-yl)amino)-3-((S)-3-methyl-2-(quinoline-2-carboxamido)butanamido)-4-oxobutanoic acid] (Quinaldoyl-VDV[Pro(3S-CH2tBu)]D-X1) | – | – | Index of cell death (HeLa cells; 20 nM Vincristine for 48 hours, propidium iodide positive cells): ++; Protection against apoptotic death induced by vincristine (HeLa cells; compound added 1 hour before vincristine): protect the cells against apoptotic death induced by vincristine in a dose-dependent manner
CC(C)[C@H](NC(=O)c1ccc2ccccc2n1)C(=O)N[C@@H](CC(=O)O)C(=O)N[C@H](C(=O)N1CC[C@H](CC(C)(C)C)[C@H]1C(=O)NN(CC(=O)O)C(=O)COc1c(F)cccc1F)C(C)C [Compound 4, (S)-4-(((S)-1-((2S,3S)-2-(2-(carboxymethyl)-2-(2-(2,6-difluorophenoxy)acetyl)hydrazinecarbonyl)-3-neopentylpyrrolidin-1-yl)-3-methyl-1-oxobutan-2-yl)amino)-3-((S)-3-methyl-2-(quinoline-2-carboxamido)butanamido)-4-oxobutanoic acid] (Quinaldoyl-VDV[Pro(3S-CH2tBu)]-X3) | irreversible inhibitor | yes | –
CC(C)[C@H](NC(=O)c1ccc2ccccc2n1)C(=O)N[C@@H](CC(=O)O)C(=O)N[C@H](C(=O)N1CC[C@H](CC(C)(C)C)[C@H]1C(=O)NN(CC(=O)O)C(=O)/C=C/C(=O)N(C)Cc1ccccc1)C(C)C [Compound 5, (S)-4-(((S)-1-((2S,3S)-2-(2-((E)-4-(benzyl(methyl)amino)-4-oxobut-2-enoyl)-2-(carboxymethyl)hydrazinecarbonyl)-3-neopentylpyrrolidin-1-yl)-3-methyl-1-oxobutan-2-yl)amino)-3-((S)-3-methyl-2-(quinoline-2-carboxamido)butanamido)-4-oxobutanoic acid] (Quinaldoyl-VDV[Pro(3S-CH2tBu)]-X4) | irreversible inhibitor | yes | –
CC(C)[C@H](NC(=O)[C@H](CC(=O)O)NC(=O)C(=O)Nc1ccccc1C(C)(C)C)C(=O)N1CC[C@H](CC(C)(C)C)[C@H]1C(=O)NN(CC(=O)O)C(=O)COc1c(F)cccc1F [Compound 6, (S)-3-(2-((2-(tert-butyl)phenyl)amino)-2-oxoacetamido)-4-(((S)-1-((2S,3S)-2-(2-(carboxymethyl)-2-(2-(2,6-difluorophenoxy)acetyl)hydrazinecarbonyl)-3-neopentylpyrrolidin-1-yl)-3-methyl-1-oxobutan-2-yl)amino)-4-oxobutanoic acid] | irreversible inhibitor | yes | –
